Measurements from patent publication US5550124A, “Use of peripheral-type benzodiazpine sites for treatment of CNS trauma or disease” (priority 1991, dated 1996).
Entries after “also recorded” stand apart in the source; their conditions may differ. Where two headings read alike, the source gives them in different places.

Tests used:
[1] = in vivo; cited from earlier work
[2] = in vivo; cited from earlier work; remark: listed apart in the source
[3] = administered post-ischemia in animals; cited from earlier work
[4] = in vivo; cited from earlier work; remark: listed apart in the source
platelet aggregation = details: cited from earlier work
[5] = ischemic baboons; cited from earlier work
[6] = in vivo; cited from earlier work; remark: listed apart in the source
[7] = target: T1, peripheral-type BZ receptors (Rattus norvegicus, UniProt P16257); assay: Competitive binding assay, displacement of 3H-Ro5-4864 in brain homogenates
T1 construct: displacement of ^3 H-RO5-4864 in brain homogenates; from tissue; host or cells: brain homogenates
Text: Sprengel, R., et al., "Molecular cloning and expression of cDNA encoding a peripheral-type benzodiazepine receptor," J. Biol. Chem., 264:20415-20421 (1989).
Some of these compounds were further tested in in vivo studies.

[8] = Physical trauma (head injury) model, grip score 18 hours post-injury; assay type: in vivo, mice (male CF-1)
Text: Two tests which can be readily performed are observation of grip score and observation of grip time in injured test animals. Another test for agonist activity is for decrease in mortality caused by the CNS injury. Mice can be treated to simulate CNS injury by a variety of methods: they can be deprived of oxygen by administration of KCN (Nauquier, A., et al., Arch. Int. Pharmacodyn., 249:330 (1981)) or by temporary tying-off of the carotid artery (Braughler, J. M. and Lainer, M. J., "The effects of large doses of methylprednisolone on neurologic recovery and survival in the Mongolian gerbil following three hours of unilateral carotid occlusion," CNS Trauma, 3:153-162 (1986)). Alternatively, blows can be administered to the head or the spinal cord of the test animal.
The following protocol was used:
The compound to be tested was weighed and suspended in a polyethylated castor oil solution ("Cremophore") (21% Cremaphore, 3% ethanol in 0.9% saline). The concentration of the solution was then adjusted for administration at a dose of 0.01 cc/gm body weight. For example, for a dose of 10 mg/Kg, the solution was made 1.0 mg/cc, and a 23 g mouse would receive 0.23 cc of this solution. The solution was sonicated for approximately 90 minutes, or until the compound is dissolved.
Male CF-1 mice (15-25 gm) were weighed and marked for identification purposes. Each individual mouse was restrained by grasping the dorsal skin of the neck until the mouse was still. An impounder was used to administer the trauma. The impounder consists of a weight suspended over the animal's head at a height sufficient to produce significant injury when dropped, and a means for immobilizing the animal (in this case, room to hold the animal in place). […] 62:882-887, 883. The mouse was positioned properly under the impounder, and the weight was released from its preset height (11 CM).
Immediately following injury, the mouse was placed under a heat lamp. At various times after injury, the drug was administered intravenously at the specified dose. The time of injury and the time of injection were recorded.
B) Measurement of Grip Score
Each mouse was evaluated 18 hours post-injury for neurological deficit. The delay of 18 hours provided time for any sedative effects of the compound to wear off. It also provided time for healing to occur. Mortality was also noted. A standard grip test, as described in Hall et al., J. Neurosurg. 68:456-461 (1988), was used. The apparatus consisted of a taut string suspended between two uprights, 60 cm in length and 40 cm above a padded table.
Each mouse was picked up by the tail and placed on the string. […] The tail was then released. Grip score was recorded based on the mouse's performance while on the string. The following criteria were used (taken from Hall, E. D., J. Neurosurg. 62:882-887 (1985)):
C) Statistical Analysis Results of the above test were analyzed for statistical significance using the Mann-Whitney U test. See R. V. Tallarida & R. B. Murray, MANUAL OF PHARMACOLOGIC CALCULATIONS WITH COMPUTER PROGRAMS, Springer-Verlag, N.Y., pp. 57-59 (1981). This test was used to compare each set of grip scores for a particular dose of a particular compound against the grip scores for the control group.

[9] = assay type: in vivo, mice (male CF-1)
[10] = in vivo; cited from earlier work; remark: listed apart in the source
NMDA receptor [11] = details: in vivo; cited from earlier work
NMDA receptor [12] = details: rats; cited from earlier work
NMDA receptor [13] = details: cats; cited from earlier work
[14] = dogs; cited from earlier work
[15] = rats; cited from earlier work

For `CCCCC[C@H](O)/C=C/[C@@H]1[C@H]2C/C(=C/CCCC(=O)O)O[C@H]2C[C@H]1O` [PGI2, prostaglandin I2], the half life [1] is listed as 3 min and the adverse effects [2] is listed as “tendency to precipitate hypotension”.

For `CN1CCC(=C2c3ccccc3C=Cc3ccccc32)CC1` [cyproheptadine], the “effect on neurologic function” value [3] is given as “help preserve neurologic function”.

In the case of `CN(C)CCCSc1ccccc1NC(=O)/C=C/c1ccccc1` [cinanserin], the “effect on neurologic function” value [3] is given as “help preserve neurologic function”.

In the case of `CN1C(=O)CN=C(c2ccccc2)c2cc(Cl)ccc21` [Diazepam, 7-Chloro-1,3-dihydro-1-methyl-5-phenyl-2H-1,4-benzodiazepin-2-one], the “effect in cerebral ischemia” value [4] is listed as “somewhat effective in treatment of cerebral ischemia”.

In the case of `COc1ccc2c(c1)c(CC(=O)O)c(C)n2C(=O)c1ccc(Cl)cc1` [indomethacin], the “effect on platelet aggregation” value (platelet aggregation) is listed as “inhibit platelet aggregation” and the “edema, cerebral blood flow and carbon dioxide reactivity” value [5] is listed as “significantly increase edema and decrease cerebral blood flow and carbon dioxide reactivity”.

For `CC(=O)CCCCn1c(=O)c2c(ncn2C)n(C)c1=O` [Pentoxifylline], the “effect on blood viscosity / red blood cell flexibility” value [6] is listed as “improves the oxygenation of ischemic tissues by decreasing blood viscosity” and the adverse effects [2] is listed as “chest pain, dyspepsia, nausea, vomiting, dizziness, headache, tremor, anxiety, blurred vision, malaise, and others”.

With `CCC(C)N(C)C(=O)c1cc2ccccc2c(-c2ccccc2Cl)n1` (stereo not drawn) [PK 11195, N-methyl-N-1-(1-methyl,propyl)(2-chlorophenyl)-3-isoquinoline carboxamide] the “binding affinity to peripheral-type BZ sites (in words)” value [7] was “high degree of affinity”, the “grip score 18 hours post trauma (in words)” value ([8]; 0.1 mg/kg i.v., FIG. 1) was “statistically significant increase in the grip score” and the “neurological deficit score (grip score)” value ([8]; 1 mg/kg i.v., 5 min post injury, control 2.06 ± 0.23, P<0.05) was 3.07 ± 0.47. For the same compound, the “neurological deficit score (grip score)” value ([8]; 1 mg/kg i.v., 30 min post injury, control 1.54 ± 0.43, P<0.004) was 3.53 ± 0.36, the “neurological deficit score (grip score)” value ([8]; 1 mg/kg i.v., 60 min post injury, control 2.54 ± 0.51) was 1.93 ± 0.42 and the “neurological deficit score (grip score)” value ([8]; 10 mg/kg i.v., 5 min post injury, control 2.06 ± 0.23, P<0.05) was 2.89 ± 0.40. For the same compound, the “neurological deficit score (grip score)” value ([8]; 10 mg/kg i.v., 30 min post injury, control 1.56 ± 0.50) was 2.53 ± 0.40, the “neurological deficit score (grip score)” value ([8]; 10 mg/kg i.v., 60 min post injury, control 1.38 ± 0.60, P<0.03) was 2.62 ± 0.40 and the “grip score versus controls (in words)” value ([8]; 10 mg/kg, administered up to 1 hour post-injury) was “statistically significant increase in grip score”. For the same compound, the “effectiveness in treatment of CNS trauma/damage (in words)” value ([8]; grip score 18 h post trauma, FIGS. 1-8) was “effective”, the “percent survival (in words)” value ([9]; after KCN, increasing dose of compound, FIG. 10) was “increasing the dose of the compound increases the percent survival” and the “protection against KCN mortality (in words)” value ([9]; varied KCN dose, FIG. 11) was “protect against higher doses of KCN”. The “effect in cardiac ischemia” value [10] was “ineffective in treating cardiac ischemia”.

In the case of `C[C@]12N[C@H](Cc3ccccc31)c1ccccc12` [MK-801], the adverse reactions (NMDA receptor [11]) is given as “respiratory depression and elevated CO2 level; also recorded: behavioral changes, including a psychotic-like response and diminished cognitive and mental status”, the “effect on blood pressure” value (NMDA receptor [12]) is given as “increases blood pressure” and the “effect on blood pressure” value (NMDA receptor [13]) is given as “increases blood pressure”.

For `Fc1ccc(C(c2ccc(F)cc2)N2CCN(C/C=C/c3ccccc3)CC2)cc1` [Flunarizine], the “effect on cerebral blood flow” value [14] is listed as “no increase in cerebral blood flow or improvement in cerebral metabolism”.

For `COC(=O)C1=C(C)NC(C)=C(C(=O)OC)C1c1ccccc1[N+](=O)[O-]` [Nifedipine], the “effect on cerebral blood flow” value [15] is listed as “antagonize cerebral blood flow”.
